This is an account of results in patent US12570642B2, “GLP-IR modulating compounds” (Gilead Sciences, Inc., priority 2021, dated 2026).

In this test the target is GLP-1R (Homo sapiens, UniProt P43220). Kind of test: GLP-1R Activation - cAMP Assay. The class given is cell-based. To be noted: each compound run on one of the two cAMP assays (Assay 1 or Assay 2, not specified). In short, it runs like this: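 CHO cells stably expressing GLP-1R, plated at 1,000 cells/well overnight, then equilibrated 1 h in HBSS with 20 mM Hepes and 0.1% BSA. Agonist added as 10-point dose response for 30 min at 37 °C. cAMP measured by HTRF (Cisbio Gs Dynamic kit); EC50 from sigmoidal fit.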
GLP-1R, sequence (P43220 24-463): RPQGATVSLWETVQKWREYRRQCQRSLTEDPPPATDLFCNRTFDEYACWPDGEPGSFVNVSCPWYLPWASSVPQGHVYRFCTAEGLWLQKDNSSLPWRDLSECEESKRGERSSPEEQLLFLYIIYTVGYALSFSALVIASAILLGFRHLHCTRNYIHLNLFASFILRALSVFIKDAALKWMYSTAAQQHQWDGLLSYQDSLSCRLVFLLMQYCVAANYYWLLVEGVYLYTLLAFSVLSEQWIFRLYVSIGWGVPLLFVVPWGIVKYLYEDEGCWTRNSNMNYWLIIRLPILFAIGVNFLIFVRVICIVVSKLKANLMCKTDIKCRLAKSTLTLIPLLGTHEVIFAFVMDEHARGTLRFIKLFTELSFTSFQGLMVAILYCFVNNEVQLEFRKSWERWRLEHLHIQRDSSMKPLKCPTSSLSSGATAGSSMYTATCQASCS

The mark [1] stands for this setting: cAMP increase in CHO cells stably expressing GLP-1R.

The compound `CC1(C)COC[C@H]1n1c(Cc2cc(F)c(-c3cccc(OCc4cnc(-c5cnn(C(F)F)c5)cc4Cl)n3)cc2F)nc2ccc(C(=O)O)cc21` [Example 552, (S)-2-(4-(6-((4-chloro-6-(1-(difluoromethyl)-1H-pyrazol-4-yl)pyridin-3-yl)methoxy)pyridin-2-yl)-2,5-difluorobenzyl)-1-(4,4-dimethyltetrahydrofuran-3-yl)-1H-benzo[d]imidazole-6-carboxylic acid] had an EC50 under setting [1] of 0.99 nM.

As for `COc1cc(Cl)ncc1COc1cccc(-c2cc(F)c(Cc3nc4c(F)cc(C(=O)O)cc4n3[C@@H]3COCC3(C)C)cc2F)n1` [Example 288, (S)-2-(4-(6-((6-chloro-4-methoxypyridin-3-yl)methoxy)pyridin-2-yl)-2,5-difluorobenzyl)-1-(4,4-dimethyltetrahydrofuran-3-yl)-4-fluoro-1H-benzo[d]imidazole-6-carboxylic acid], the EC50 under setting [1] turned out to be 0.041 nM.

As for `COC(=O)N1Cc2ccc(COc3cccc(-c4cc(F)c(Cc5nc6ccc(C(=O)O)cc6n5[C@@H]5COCC5(C)C)cc4F)n3)cc2C1` [Example 529, (S)-2-(2,5-difluoro-4-(6-((2-(methoxycarbonyl)isoindolin-5-yl)methoxy)pyridin-2-yl)benzyl)-1-(4,4-dimethyltetrahydrofuran-3-yl)-1H-benzo[d]imidazole-6-carboxylic acid], a half-maximal response under setting [1] (EC50) required 0.598 nM.

On to `Cn1nnc2ccc(COc3cccc(-c4cc(F)c(Cc5nc6ccc(C(=O)O)cc6n5C[C@@H]5CCO5)cc4F)n3)cc21` [Example 525, (S)-2-(2,5-difluoro-4-(6-((1-methyl-1H-benzo[d][1,2,3]triazol-6-yl)methoxy)pyridin-2-yl)benzyl)-1-(oxetan-2-ylmethyl)-1H-benzo[d]imidazole-6-carboxylic acid], for which the response under setting [1] was half-maximal at 0.429 nM (EC50).

`CO[C@H]1COCC1n1c(Cc2cc(F)c(-c3cccc(OCc4ccc(C#N)cc4F)n3)cc2F)nc2c(F)cc(C(=O)O)cc21` (single isomer, unassigned) [Example 238] yielded an EC50 under setting [1] of 0.1 nM.

As for `Cc1cc(Cc2nc3ccc(C(=O)O)cc3n2[C@@H]2COCC2(C)C)c(F)cc1-c1ccc(F)c(OCc2ccc(C#N)cc2F)n1` [Example 279, (S)-2-(4-(6-((4-cyano-2-fluorobenzyl)oxy)-5-fluoropyridin-2-yl)-2-fluoro-5-methylbenzyl)-1-(4,4-dimethyltetrahydrofuran-3-yl)-1H-benzo[d]imidazole-6-carboxylic acid], the concentration giving a half-maximal response (EC50) under setting [1] was 0.195 nM.

Turning to `CC(=O)N[C@@H]1COC[C@@H]1n1c(Cc2cc(F)c(-c3cccc(OCc4ccc(C#N)cc4F)n3)cc2F)nc2ccc(C(=O)O)cc21` [Example 17, 1-((3R,4S)-4-acetamidotetrahydrofuran-3-yl)-2-(4-(6-((4-cyano-2-fluorobenzyl)oxy)pyridin-2-yl)-2,5-difluorobenzyl)-1H-benzo[d]imidazole-6-carboxylic Acid], the EC50 ([…]) is 5.61 nM.

Regarding `CC1(C)COC[C@H]1n1c(Cc2cc(F)c(-c3cccc(OCc4cc(F)c(C#N)cc4F)n3)cc2F)nc2c(F)cc(C(=O)O)cc21` [Example 204, (S)-2-(4-(6-((4-cyano-2,5-difluorobenzyl)oxy)pyridin-2-yl)-2,5-difluorobenzyl)-1-(4,4-dimethyltetrahydrofuran-3-yl)-4-fluoro-1H-benzo[d]imidazole-6-carboxylic acid], the EC50 under setting [1] was found to be 0.09 nM.

Under setting [1], `CC1(C)COC[C@H]1n1c(Cc2cc(F)c(-c3ccnc(OCc4ccc(Cl)cc4Cl)n3)cc2F)nc2c(F)cc(C(=O)O)cc21` [Example 404, (S)-2-(4-(2-((2,4-dichlorobenzyl)oxy)pyrimidin-4-yl)-2,5-difluorobenzyl)-1-(4,4-dimethyltetrahydrofuran-3-yl)-4-fluoro-1H-benzo[d]imidazole-6-carboxylic acid] returned a half-maximal effective concentration (EC50) of 0.068 nM.

The compound `CC1(C)COC[C@H]1n1c(Cc2cc(F)c(-c3cccc(OCc4ccc(C(F)(F)F)cc4F)n3)cc2F)nc2ccc(C(=O)O)cc21` [Example 168, (S)-2-(2,5-difluoro-4-(6-((2-fluoro-4-(trifluoromethyl)benzyl)oxy)pyridin-2-yl)benzyl)-1-(4,4-dimethyltetrahydrofuran-3-yl)-1H-benzo[d]imidazole-6-carboxylic Acid] came in with an EC50 under setting [1] of 0.388 nM.

As for `COCCn1c(Cc2cc(F)c(-c3cccc(OCc4ccc(-n5ccnn5)nc4)n3)cc2Cl)nc2c(F)cc(C(=O)O)cc21` [Example 350, 2-(4-(6-((6-(1H-1,2,3-triazol-1-yl)pyridin-3-yl)methoxy)pyridin-2-yl)-2-chloro-5-fluorobenzyl)-4-fluoro-1-(2-methoxyethyl)-1H-benzo[d]imidazole-6-carboxylic acid], the EC50 under setting [1] was 0.171 nM.

Compound `N#Cc1ccc(COc2cccc(-c3cc(F)c(Cc4nc5ccc(C(=O)O)cc5n4[C@H]4CNC(=O)C4)cc3F)n2)c(F)c1` [Example 3, (R)-2-(4-(6-((4-cyano-2-fluorobenzyl)oxy)pyridin-2-yl)-2,5-difluorobenzyl)-1-(5-oxopyrrolidin-3-yl)-1H-benzo[d]imidazole-6-carboxylic acid] registered an EC50 ([…]) of 11.5 nM.

As to `CS(=O)(=O)N1Cc2ccc(COc3cccc(-c4cc(F)c(Cc5nc6ccc(C(=O)O)cc6n5C[C@@H]5CCO5)cc4F)n3)cc2C1` [Example 519, (S)-2-(2,5-difluoro-4-(6-((2-(methylsulfonyl)isoindolin-5-yl)methoxy)pyridin-2-yl)benzyl)-1-(oxetan-2-ylmethyl)-1H-benzo[d]imidazole-6-carboxylic acid], under setting [1], the EC50 amounted to 0.102 nM.

Take `CC1(C)COC[C@H]1n1c(Cc2c(F)cc(-c3ccc(F)c(OCc4ccc(Cl)cc4F)n3)c(F)c2F)nc2c(F)cc(C(=O)O)cc21` [Example 336, (S)-2-(4-(6-((4-chloro-2-fluorobenzyl)oxy)-5-fluoropyridin-2-yl)-2,3,6-trifluorobenzyl)-1-(4,4-dimethyltetrahydrofuran-3-yl)-4-fluoro-1H-benzo[d]imidazole-6-carboxylic acid]: under setting [1], the EC50 amounted to 0.016 nM.

`CC1(C)COC[C@H]1n1c(Cc2c(F)cc(-c3ccc(F)c(OCc4ccc(Cl)cc4F)n3)cc2F)nc2c(F)cc(C(=O)O)cc21` [Example 306, (S)-2-(4-(6-((4-chloro-2-fluorobenzyl)oxy)-5-fluoropyridin-2-yl)-2,6-difluorobenzyl)-1-(4,4-dimethyltetrahydrofuran-3-yl)-4-fluoro-1H-benzo[d]imidazole-6-carboxylic acid] showed an EC50 under setting [1] of 0.123 nM.

For `COCCn1c(Cc2c(F)cc(-c3cccc(OCc4ccc(Cl)cc4F)n3)c(F)c2F)nc2c(F)cc(C(=O)O)cc21` [Example 251, 2-(4-(6-((4-chloro-2-fluorobenzyl)oxy)pyridin-2-yl)-2,3,6-trifluorobenzyl)-4-fluoro-1-(2-methoxyethyl)-1H-benzo[d]imidazole-6-carboxylic acid], a half-maximal effect under setting [1] (EC50) was put at 0.079 nM.

Consider `CC1(C)COC[C@H]1n1c(Cc2cc(F)c(-c3ccc(F)c(OCc4ccc(Cl)cc4F)n3)cc2F)nc2c(F)cc(C(=O)O)cc21` [Example 495, (S)-2-(4-(6-((4-chloro-2-fluorobenzyl)oxy)-5-fluoropyridin-2-yl)-2,5-difluorobenzyl)-1-(4,4-dimethyltetrahydrofuran-3-yl)-4-fluoro-1H-benzo[d]imidazole-6-carboxylic acid], for which, under setting [1], it took 0.144 nM to reach a half-maximal effect (EC50).

As a reminder, the EC50 is the concentration giving half of the maximal effect. A high value points to a need for much substance.
